Source: the NIST ThermoML archive (doi:10.1021/je2007764)

Test: xn = mol fraction of the nth substance listed
Settings: Fluid (supercritical or subcritical phases), Buoyancy - hydrostatic balance with magnetic suspension - one sinker

[C-]#[O+] [carbon monoxide] + N#N
mass density [kg/m3]
Settings | x1 = 0.04999 | x1 = 0.1002
324.98 K, 9998.7 kPa | – | 101.905
324.98 K, 10007 kPa | 101.939 | –
324.98 K, 10997 kPa | 111.619 | –
324.98 K, 11997 kPa | – | 121.32
324.98 K, 12000 kPa | 121.293 | –
324.98 K, 12999 kPa | 130.817 | –
324.98 K, 13996 kPa | – | 140.254
324.98 K, 15957 kPa | 158.239 | –
324.98 K, 15995 kPa | – | 158.639
324.98 K, 17995 kPa | 176.379 | –
324.98 K, 17996 kPa | – | 176.463
324.98 K, 19931 kPa | 193.033 | –
324.98 K, 19948 kPa | – | 193.262
324.99 K, 14116 kPa | 141.303 | –
349.96 K, 991.96 kPa | – | 9.538
349.96 K, 2999.2 kPa | – | 28.731
349.96 K, 4997.9 kPa | – | 47.663
349.96 K, 6997.9 kPa | – | 66.355
349.96 K, 8997.6 kPa | – | 84.725
349.96 K, 10998 kPa | – | 102.742
349.96 K, 12999 kPa | – | 120.335
349.96 K, 14996 kPa | – | 137.446
349.96 K, 16994 kPa | – | 154.09
349.96 K, 18214 kPa | – | 164
349.97 K, 991.18 kPa | 9.53 | –
349.97 K, 993.39 kPa | – | 9.551
349.97 K, 1959 kPa | 18.808 | –
349.97 K, 1978.8 kPa | – | 18.999
349.97 K, 3922.5 kPa | – | 37.508
349.97 K, 4004.8 kPa | 38.283 | –
349.97 K, 5997.7 kPa | – | 57.048
349.97 K, 5998.2 kPa | 57.037 | –
349.97 K, 7998.9 kPa | – | 75.601
349.97 K, 8018.6 kPa | 75.757 | –
349.97 K, 9998.3 kPa | – | 93.794
349.97 K, 10022 kPa | 93.976 | –
349.97 K, 11997 kPa | – | 111.586
349.97 K, 12018 kPa | 111.731 | –
349.97 K, 13995 kPa | – | 128.938
349.97 K, 13997 kPa | 128.911 | –
349.97 K, 15994 kPa | 145.784 | 145.829
349.97 K, 17992 kPa | 162.172 | 162.217
349.97 K, 19655 kPa | 175.42 | –
349.97 K, 19959 kPa | – | 177.859
374.95 K, 1995 kPa | – | 17.848
374.95 K, 2998.2 kPa | – | 26.743
374.95 K, 4980.9 kPa | – | 44.17
374.95 K, 6997.6 kPa | – | 61.627
374.95 K, 8997.4 kPa | – | 78.624
374.95 K, 10995 kPa | – | 95.265
374.95 K, 12994 kPa | – | 111.524
374.95 K, 15016 kPa | – | 127.569
374.95 K, 16990 kPa | – | 142.823
374.95 K, 19967 kPa | – | 165.012
374.96 K, 991.14 kPa | 8.887 | –
374.96 K, 993.41 kPa | – | 8.908
374.96 K, 1989.3 kPa | 17.794 | –
374.96 K, 3998.5 kPa | 35.556 | –
374.96 K, 4004.8 kPa | – | 35.621
374.96 K, 5997.9 kPa | 52.996 | –
374.96 K, 5999 kPa | – | 53.019
374.96 K, 7996.5 kPa | 70.138 | –
374.96 K, 8024.2 kPa | – | 70.391
374.96 K, 9996 kPa | 86.957 | –
374.96 K, 9997.9 kPa | – | 86.999
374.96 K, 11988 kPa | – | 103.381
374.96 K, 11996 kPa | 103.411 | –
374.96 K, 13993 kPa | – | 119.504
374.96 K, 13995 kPa | 119.477 | –
374.96 K, 15990 kPa | 135.101 | 135.151
374.96 K, 17987 kPa | – | 150.362
374.96 K, 17988 kPa | 150.312 | –
374.96 K, 18988 kPa | – | 157.82
374.96 K, 19817 kPa | 163.859 | –
374.96 K, 19971 kPa | – | 165.047
400.02 K, 984.4 kPa | – | 8.268
400.02 K, 997.16 kPa | – | 8.375
400.02 K, 1934.5 kPa | 16.2 | –
400.02 K, 1975.5 kPa | – | 16.545
400.02 K, 2994.3 kPa | – | 24.985
400.02 K, 3986.3 kPa | 33.151 | –
400.02 K, 3997.3 kPa | – | 33.254
400.02 K, 4997.1 kPa | – | 41.415
400.02 K, 5996.1 kPa | – | 49.523
400.02 K, 5998 kPa | 49.518 | –
400.02 K, 7005.5 kPa | – | 57.622
400.02 K, 7994.6 kPa | – | 65.495
400.02 K, 7996.6 kPa | 65.491 | –
400.02 K, 8987 kPa | – | 73.307
400.02 K, 9895.5 kPa | – | 80.402
400.02 K, 9973.2 kPa | 80.982 | –
400.02 K, 11025 kPa | – | 89.118
400.02 K, 11992 kPa | 96.459 | –
400.02 K, 11994 kPa | – | 96.505
400.02 K, 12991 kPa | – | 104.017
400.02 K, 13990 kPa | 111.428 | 111.464
400.02 K, 14988 kPa | – | 118.8
400.02 K, 15986 kPa | 126.014 | 126.048
400.02 K, 16227 kPa | – | 127.785
400.02 K, 17982 kPa | – | 140.257
400.02 K, 17985 kPa | 140.246 | –
400.02 K, 19027 kPa | 147.507 | –
400.03 K, 18458 kPa | – | 143.591
